Source: paper PMC12683216, “Using High‐Throughput Screening to Identify Crosslinking Peptides That Control Cell‐Mediated Matrix Degradation” (Advanced Healthcare Materials, 2025)
Where two headings read alike, the source gives them in different places. Where a SMILES comes first, the peptide text is derived from it. [ ]: non-standard residue; d: D form. βAla = NCCC(=O)O

Columns and labels:
[1] = Soluble peptide degradation, Cells condition (LC-MS); assay type: in vitro ADME, human; details: human; for remaining at 24 h, 50 µM: Figure 3C, individually synthesized soluble peptide, N = 6
In short: (§1)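 Pooled synthetic TAILS-derived peptides added to hUVEC or hMSC cultures (Cells) or cell-free conditioned media (Media); MMP-14 inhibitor NSC 405 020 at 10 µM final. Samples taken at 0 and 24 h, acidified, analysed by LC-MS; peak areas normalised to 50 µM βFβA6 internal standard, 24 h/0 h gives fraction remaining.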

[2] = tested on: MMP-14; experiment: as above; assay type: in vitro ADME, human; details: human
In short: as §1

[3] = tested on: T1, MMP-14; experiment: Peptide degradation with added exogenous recombinant MMP-14 (LC-MS); assay type: in vitro ADME; details: human
T1 construct: purchased antibodies.com
Procedure: (§2) To verify that MMP‐14 can degrade the KLVAD‐LM and PanMMP peptides, recombinant MMP‐14 was added to the different peptides, both in PBS and in the Cell and Media culture conditions (Figure 7 ). Peptides were incubated under three conditions: in fresh cell culture media (“Blank”), in media with cells present (“Cells”), and in cell‐conditioned media (“Media”). This was done for both hMSCs and hUVECs, and was also done with and without the addition of exogenous MMP.
(§3) The extent of peptide degradation was quantified for samples both with and without the addition of exogenous MMP‐14. […] Error bars indicate ± standard deviation, N = 3 with technical triplicates.
(§4) hUVECs (75000 per well) or hMSCs (36000 per well) were seeded into a 48 well plate, and 500 µL media was added to the wells. […] The peptide libraries were dissolved at a stock solution of 10 mM total peptide content. For libraries containing 38 peptides, 95 µL of the stock solution was added to each well; for libraries with 19 peptides, 47.5 µL was added to each well, and media was taken at 0 and 24 h. Add 4 µL of acetic acid to all collected media in the LC‐MS plates and store them in a −80 °C freezer to prevent further proteolytic degradation. From each sample, 10 µL of crude solution was introduced by the LC‐MS through a Thermo Scientific Vanquish LC System (Thermo Fisher Scientific), which outputted to a Thermo Scientific LTQ XL Linear Ion Trap Mass Spectrometer (Thermo Fisher Scientific). The sampled mixture was trapped on a column (ProntoSIL C18 AQ, 120 Å, 3 µm, 2.0 x 50 mm HPLC Column, PN 0502F184PS030, MAC‐MOD Analytical Inc.). The samples were loaded onto the column with a solvent containing acetonitrile/water, 5:95 (v/v) containing 1% acetic acid at a flow rate of 300 µL min^−1 and held for 1 min. The sample was then eluted from the column with a linear gradient of 5–40% Solvent B (1% acetic acid in acetonitrile) at the same flow rate for 5 min. This was followed by a 1 min ramp up to 100% Solvent B, where it was re‐equilibrated with Solvent A (1% acetic acid) to 5% solvent B over the course of 1 min and held there for 2 min. The column temperature was kept at a constant 29 °C, and the mass spectrometer was operated in positive ion mode. Using a Heated ESI, the Source Voltage was set to 4.1 kV, and the capillary temperature was 350 °C. For non‐library degradation studies, 2.5 µL of 10 mM peptide stock solution for each peptide was added.
(§5) To assess the activity of the conditioned media, the media were divided into two equal portions. One portion was used for a standard degradation study, while the other was cultured for an additional 24 h before the PanMMP and KLVADLMASAE were added. After 24 h of incubation, the media were collected for further analysis. To assess the impact of recombinant MMP‐14 on PanMMP and KLVADLMASAE, recombinant MMP‐14 (antibodies.com) was dissolved in the media at a concentration of 0.5 nM. The remaining steps followed the standard degradation study protocol.
(§6) For all degradation studies using soluble peptides, a non‐proteolytically degradable NH2‐βFβAβAβAβAβAβA‐amide (βFβA6) peptide, where βF is β‐phenylalanine and βA is β‐alanine, was added at a 50 µM concentration and used as an internal standard. Peptide degradation ratios were measured by LC‐MS and analyzed by Xcalibur. The relative concentrations of the peptide were calculated by the ratio of the peak area of the peptide and the peak area of βFβA6.

[4] = tested on: hMSCs; experiment: Soluble peptide degradation, Cells condition (LC-MS); assay type: in vitro ADME, human; details: for peptide remaining after 24 h, Cells condition, hMSCs: 50 µM soluble peptide; for Fraction of peptide remaining after 24 hours: hMSC Cells: individually synthesized soluble peptide, media on hMSCs, ratio to βFβA6
In short: as §1

[5] = tested on: hUVECs; experiment: as above; assay type: in vitro ADME, human; details: 24 h, LC-MS; for Fraction of peptide remaining after 24 hours: hUVEC Cells: ratio to βFβA6
In short: as §1

[6] = target: T2, recombinant MMP‐14 (Homo sapiens, UniProt P50281); experiment: Peptide degradation with added exogenous recombinant MMP-14 (LC-MS); assay type: in vitro ADME; details: fresh cell culture media (both hMSC and hUVEC media), no cell contact, recombinant MMP-14 0.5 nM, 24 h, LC-MS
T2 construct: purchased antibodies.com
Procedure: as §2, §3, §4, §5, §6

[7] = Peptide stability in fresh cell culture media (Blank); assay type: in vitro ADME; details: no cell contact, 24 h, LC-MS
Procedure: as §2, §3
hUVECs (75000 per well) or hMSCs (36000 per well) were seeded into a 48 well plate, and 500 µL media was added to the wells. […] The peptide libraries were dissolved at a stock solution of 10 mM total peptide content. […]
as §6

[8] = hMSCs in culture with fresh media (Cells condition), Figure 2B heatmap, pooled TAILS-derived soluble peptides (Ac-βAla N-terminus, βAla-amide C-terminus) in media on hMSCs (36000 per well, 48 well plate, 500 µL), 24 h, LC-MS, ratio to βFβA6 internal standard, 24 h / 0 h, N = 5, read-out: Fraction of peptide remaining at 24 hours: hMSC Cells
[9] = hUVECs in culture with fresh media (Cells condition), Figure 2B heatmap, pooled TAILS-derived soluble peptides in media on hUVECs (75000 per well, 48 well plate, 500 µL), 24 h, LC-MS, ratio to βFβA6 internal standard, 24 h / 0 h, N = 5, read-out: Fraction of peptide remaining at 24 hours: hUVEC Cells
[10] = hUVECs in culture with fresh media (Cells condition), media on hUVECs, 24 h, LC-MS, ratio to βFβA6, read-out: Fraction of peptide remaining after 24 hours: hUVEC Cells
[11] = with NSC 405 020 (MMP-14 inhibitor), Figure 3C, 50 µM peptide, media on hMSCs with MMP-14 inhibitor NSC 405 020 10 µM, 24 h, LC-MS, N = 6, read-out: Fraction of peptide remaining after 24 hours: hMSC +Inhibitor
[12] = with NSC 405 020 (MMP-14 inhibitor), Figure 3C, 50 µM peptide, media on hUVECs with MMP-14 inhibitor NSC 405 020 10 µM, 24 h, LC-MS, N = 6, read-out: Fraction of peptide remaining after 24 hours: hUVEC +Inhibitor
[13] = Figure 3C, 50 µM, 24 h, LC-MS, N = 6

SMILES: CSCC[C@H](NC(=O)[C@H](CC(C)C)NC(=O)[C@H](CC(=O)O)NC(=O)[C@H](C)NC(=O)[C@@H](NC(=O)[C@H](CC(C)C)NC(=O)[C@H](CCCCN)NC(=O)CCNC(C)=O)C(C)C)C(=O)N[C@@H](C)C(=O)N[C@@H](CO)C(=O)N[C@@H](C)C(=O)N[C@@H](CCC(=O)O)C(=O)NCCC(N)=O [KLVAD-LM] (Ac-[βAla]KLVADLMASAE[βAla]-NH2)
- remaining at 24 h ([1]; cells or culture medium): 87%
- remaining at 24 h ([1]; cells or culture medium, Fraction of peptide remaining after 24 hours: hMSC Cells): 39%
- remaining at 24 h, 50 µM ([2]; cells or culture medium): 100%
- remaining at 24 h, 50 µM ([2]; cells or culture medium, Fraction of peptide remaining after 24 hours: hMSC +Inhibitor): 82%
- remaining at 24 h, 50 µM ([3]; cells or culture medium, peptide remaining in hMSC conditioned media with added MMP‐14): 76%
- remaining at 24 h, 50 µM ([3]; cells or culture medium, peptide remaining in hUVEC conditioned media with added MMP‐14): 69%

SMILES: CC(=O)NCCC(=O)N[C@@H](CCCCN)C(=O)N[C@@H](CC(C)C)C(=O)N[C@H](C(=O)N[C@@H](C)C(=O)N[C@@H](CC(=O)O)C(=O)N[C@@H](CC(N)=O)C(=O)N[C@@H](Cc1ccc(O)cc1)C(=O)N[C@@H](C)C(=O)N[C@@H](CO)C(=O)N[C@@H](C)C(=O)N[C@@H](CCC(=O)O)C(=O)NCCC(N)=O)C(C)C [KLVAD-NY] (Ac-[βAla]KLVADNYASAE[βAla]-NH2)
- remaining at 24 h [1, 8]: 70%
- remaining at 24 h, 50 µM ([1]; hMSCs in culture with fresh media (Cells condition), media on hMSCs, 24 h, LC-MS, ratio to βFβA6, read-out: Fraction of peptide remaining after 24 hours: hMSC Cells): 78%
- remaining at 24 h [1, 9]: 92%
- remaining at 24 h, 50 µM [1, 10]: 96%
- remaining at 24 h, 50 µM [2, 11]: 87%
- remaining at 24 h, 50 µM [2, 12]: 98%
- remaining after 24 h in the Cells condition for hMSCs ([4]; Figure 2B screen, 24 h, LC-MS): 70%
- peptide remaining after 24 h, Cells condition, hMSCs ([4]; Figure 3C, LC-MS, N = 6): 78%
- Fraction of peptide remaining after 24 hours: hUVEC Cells ([5]; Figure 3B heatmap, split-and-pool libraries KLVADX1X2ASAE in media on hUVECs, N = 2): 0.91

SMILES: CC(=O)NCCC(=O)N[C@@H](CCCCN)C(=O)N[C@@H](CC(C)C)C(=O)N[C@H](C(=O)N[C@@H](C)C(=O)N[C@@H](CC(=O)O)C(=O)N1CCC[C@H]1C(=O)N[C@@H](Cc1ccc(O)cc1)C(=O)N[C@@H](C)C(=O)N[C@@H](CO)C(=O)N[C@@H](C)C(=O)N[C@@H](CCC(=O)O)C(=O)NCCC(N)=O)C(C)C [KLVAD-PY] (Ac-[βAla]KLVADPYASAE[βAla]-NH2)
- remaining at 24 h ([1]; hMSCs in culture with fresh media (Cells condition), Figure 3B heatmap, split-and-pool libraries KLVADX1X2ASAE (19 or 38 peptides per library) in media on hMSCs, 24 h, LC-MS, ratio to βFβA6, N = 2, read-out: Fraction of peptide remaining after 24 hours: hMSC Cells): 56%
- remaining at 24 h ([1]; hUVECs in culture with fresh media (Cells condition), Figure 3B heatmap, split-and-pool libraries KLVADX1X2ASAE in media on hUVECs, 24 h, LC-MS, ratio to βFβA6, N = 2, read-out: Fraction of peptide remaining after 24 hours: hUVEC Cells): 94%
- remaining at 24 h, 50 µM [1, 10]: 88%
- remaining at 24 h, 50 µM [2, 11]: 89%
- remaining at 24 h, 50 µM [2, 12]: 100%
- Fraction of peptide remaining after 24 hours: hMSC Cells [4, 13]: 0.52

SMILES: CC[C@H](C)[C@H](NC(=O)CNC(=O)[C@H](CCC(N)=O)NC(=O)[C@@H]1CCCN1C(=O)CNC(=O)CCNC(C)=O)C(=O)N[C@@H](Cc1c[nH]c2ccccc12)C(=O)NCC(=O)N[C@@H](CCC(N)=O)C(=O)NCCC(N)=O [PanMMP, reference compound] (Ac-[βAla]GPQGIWGQ[βAla]-NH2)
- remaining at 24 h [1, 8]: 39%
- metabolised at 24 h ([1]; hMSCs in culture with fresh media (Cells condition), Figure 2B screen, hMSCs, 24 h, LC-MS, read-out: amount of degradation in the Cells condition): 61%
- remaining at 24 h [1, 9]: 69%
- remaining at 24 h, 50 µM [2, 12]: 95%
- peptide remaining, Cells + MMP-14 inhibitor, hMSCs ([4]; 24 h, 50 µM): 78%
- Fraction of peptide remaining after 24 hours: hMSC +Inhibitor ([4]; Figure 3C, 50 µM peptide, media on hMSCs with MMP-14 inhibitor NSC 405 020 10 µM, 24 h, LC-MS, N = 6): 0.78
- peptide remaining after 24 h, Cells condition, hMSCs ([4]; Figure 3C, LC-MS, N = 6): 35%
- Fraction of peptide remaining after 24 hours: hMSC Cells [4, 13]: 0.35
- Fraction of peptide remaining after 24 hours: hUVEC Cells ([5]; Figure 3C, individually synthesized soluble peptide, 50 µM, media on hUVECs, N = 6): 0.77
- degradation after 24 h, Cells + Inhibitor, cultured with hUVECs ([5]; NSC 405 020 10 µM): greater than 2%
- remaining at 24 h, 50 µM ([3]; Figure 7 study, recombinant MMP-14 0.5 nM, 24 h, LC-MS, N = 3 with technical triplicates, read-out: peptide remaining in hMSC conditioned media with added MMP‐14): 84%
- remaining at 24 h, 50 µM ([3]; Figure 7 study, recombinant MMP-14 0.5 nM, 24 h, LC-MS, N = 3 with technical triplicates, read-out: peptide remaining in hUVEC conditioned media with added MMP‐14): 72%
- degradation on adding MMP‐14 to the Blank condition [6]: 10–20%
- degradation in the Blank condition without added MMP‐14 (hydrolytic stability) [7]: negligible degradation
